Like-named read-outs stand apart in the source and are kept apart here.
Tests used:
Assay type in all cases: cell-based
[1] = molecular target: T1, 168 GPCRs (Homo sapiens, UniProt P25105); details: PTAFR
T1 construct: host or cells: PathHunter cell lines

[2] = molecular target: T2, 168 GPCRs (Homo sapiens, UniProt P30556)
T2 construct: host or cells: PathHunter cell lines
T2 sequence (P30556 1-359): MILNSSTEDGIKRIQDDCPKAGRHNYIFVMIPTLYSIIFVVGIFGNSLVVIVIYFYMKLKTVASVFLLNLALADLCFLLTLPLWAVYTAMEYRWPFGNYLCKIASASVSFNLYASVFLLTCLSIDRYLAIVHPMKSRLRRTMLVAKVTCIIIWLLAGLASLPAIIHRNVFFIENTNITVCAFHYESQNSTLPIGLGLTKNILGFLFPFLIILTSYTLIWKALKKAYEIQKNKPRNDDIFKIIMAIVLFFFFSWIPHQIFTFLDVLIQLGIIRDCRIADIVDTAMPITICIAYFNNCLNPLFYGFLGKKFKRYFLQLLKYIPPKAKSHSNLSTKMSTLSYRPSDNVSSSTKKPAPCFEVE

[3] = molecular target: T3, 168 GPCRs (Homo sapiens, UniProt P41145); details: OPRK1
T3 construct: host or cells: PathHunter cell lines

[4] = molecular target: T4, 168 GPCRs (Homo sapiens, UniProt P47872); details: SCTR
T4 construct: host or cells: PathHunter cell lines

[5] = molecular target: T5, 168 GPCRs (Homo sapiens, UniProt P51684)
T5 construct: host or cells: PathHunter cell lines
T5 sequence (P51684 1-374): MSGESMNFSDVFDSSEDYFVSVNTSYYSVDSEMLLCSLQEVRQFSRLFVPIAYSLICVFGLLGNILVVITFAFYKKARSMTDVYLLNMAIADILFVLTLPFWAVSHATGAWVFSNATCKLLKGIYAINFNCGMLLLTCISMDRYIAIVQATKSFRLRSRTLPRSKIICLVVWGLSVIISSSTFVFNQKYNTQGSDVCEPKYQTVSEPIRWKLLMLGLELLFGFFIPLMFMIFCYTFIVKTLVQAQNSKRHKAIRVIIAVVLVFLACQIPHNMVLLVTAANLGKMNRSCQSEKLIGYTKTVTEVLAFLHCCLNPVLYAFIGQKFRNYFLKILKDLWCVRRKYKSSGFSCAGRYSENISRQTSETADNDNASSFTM

[6] = molecular target: T6, 168 GPCRs (Homo sapiens, UniProt Q16581)
T6 construct: host or cells: PathHunter cell lines
T6 sequence (Q16581 1-482): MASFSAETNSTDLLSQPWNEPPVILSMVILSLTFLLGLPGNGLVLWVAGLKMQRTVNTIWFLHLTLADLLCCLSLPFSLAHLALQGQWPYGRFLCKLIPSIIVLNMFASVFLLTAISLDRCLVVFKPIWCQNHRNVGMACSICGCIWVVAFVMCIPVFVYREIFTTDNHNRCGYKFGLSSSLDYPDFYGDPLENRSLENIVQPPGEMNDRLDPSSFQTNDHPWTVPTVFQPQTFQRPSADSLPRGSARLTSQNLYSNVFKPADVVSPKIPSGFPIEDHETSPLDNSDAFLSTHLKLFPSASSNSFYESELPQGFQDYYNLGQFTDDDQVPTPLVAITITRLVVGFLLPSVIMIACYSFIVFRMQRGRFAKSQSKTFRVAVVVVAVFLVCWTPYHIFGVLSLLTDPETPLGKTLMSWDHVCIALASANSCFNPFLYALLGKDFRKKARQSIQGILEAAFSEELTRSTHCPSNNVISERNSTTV

[7] = molecular target: T7, 168 GPCRs (Homo sapiens, UniProt Q9NSD7); details: RXFP3
T7 construct: host or cells: PathHunter cell lines
T7 sequence (Q9NSD7 1-469): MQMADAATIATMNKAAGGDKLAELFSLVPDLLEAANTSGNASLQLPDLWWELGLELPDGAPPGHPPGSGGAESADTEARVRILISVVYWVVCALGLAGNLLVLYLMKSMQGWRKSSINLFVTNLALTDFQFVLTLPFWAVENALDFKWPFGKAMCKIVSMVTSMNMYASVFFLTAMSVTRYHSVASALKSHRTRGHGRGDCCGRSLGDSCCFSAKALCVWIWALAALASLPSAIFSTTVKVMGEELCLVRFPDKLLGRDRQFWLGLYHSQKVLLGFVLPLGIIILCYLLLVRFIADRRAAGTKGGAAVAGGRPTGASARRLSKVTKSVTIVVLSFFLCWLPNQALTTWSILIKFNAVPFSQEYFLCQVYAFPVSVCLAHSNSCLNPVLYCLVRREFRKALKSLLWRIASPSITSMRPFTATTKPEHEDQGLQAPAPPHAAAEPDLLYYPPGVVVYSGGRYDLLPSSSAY

T1 sequence (P25105 whole entry): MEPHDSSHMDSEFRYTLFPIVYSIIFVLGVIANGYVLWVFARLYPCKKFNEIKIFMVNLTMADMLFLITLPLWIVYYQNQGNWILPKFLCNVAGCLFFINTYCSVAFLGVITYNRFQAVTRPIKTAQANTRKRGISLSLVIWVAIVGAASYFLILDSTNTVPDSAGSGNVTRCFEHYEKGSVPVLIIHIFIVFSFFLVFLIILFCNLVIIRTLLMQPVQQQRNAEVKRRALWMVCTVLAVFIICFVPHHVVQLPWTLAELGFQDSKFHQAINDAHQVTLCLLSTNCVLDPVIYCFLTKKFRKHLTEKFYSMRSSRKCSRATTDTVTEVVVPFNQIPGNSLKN
T4 sequence (P47872 23-440): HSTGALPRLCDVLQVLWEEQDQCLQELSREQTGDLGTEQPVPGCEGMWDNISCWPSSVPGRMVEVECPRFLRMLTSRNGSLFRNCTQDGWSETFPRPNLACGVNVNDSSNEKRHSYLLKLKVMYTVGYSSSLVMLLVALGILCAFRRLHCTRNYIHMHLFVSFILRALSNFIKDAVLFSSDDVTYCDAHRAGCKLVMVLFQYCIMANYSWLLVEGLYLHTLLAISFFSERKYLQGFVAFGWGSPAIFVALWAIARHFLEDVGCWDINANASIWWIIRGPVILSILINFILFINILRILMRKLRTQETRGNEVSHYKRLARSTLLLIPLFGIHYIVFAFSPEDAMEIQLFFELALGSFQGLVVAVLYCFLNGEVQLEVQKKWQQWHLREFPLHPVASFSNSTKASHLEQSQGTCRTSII
T3 sequence (P41145 whole entry): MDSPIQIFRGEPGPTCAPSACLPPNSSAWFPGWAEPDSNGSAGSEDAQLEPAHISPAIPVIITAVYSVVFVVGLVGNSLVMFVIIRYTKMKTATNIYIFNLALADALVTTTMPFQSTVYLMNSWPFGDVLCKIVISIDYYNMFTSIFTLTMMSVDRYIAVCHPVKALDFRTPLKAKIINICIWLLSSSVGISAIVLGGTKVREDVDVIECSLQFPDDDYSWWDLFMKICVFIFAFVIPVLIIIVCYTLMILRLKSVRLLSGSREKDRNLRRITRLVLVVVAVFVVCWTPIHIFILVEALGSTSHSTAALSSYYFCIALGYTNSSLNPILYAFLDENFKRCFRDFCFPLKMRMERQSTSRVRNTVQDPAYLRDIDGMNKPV

Row | SMILES | % Agonist Activity ([1]; Conc 1 uM) [%] | % Antagonist Activity ([1]; Conc 1 uM) [%] | % Agonist Activity ([1]; Conc 10 uM) [%] | % Antagonist Activity ([1]; Conc 10 uM) [%] | % Agonist Activity ([2]; AGTR1, 1 uM) [%] | % Antagonist Activity ([2]; AGTR1, 1 uM) [%] | % Agonist Activity ([2]; AGTR1, 10 uM) [%] | % Antagonist Activity ([2]; AGTR1, 10 uM) [%] | % Agonist Activity ([3]; Conc 1 uM) [%] | % Antagonist Activity ([3]; Conc 1 uM) [%] | % Agonist Activity ([3]; Conc 10 uM) [%] | % Antagonist Activity ([3]; Conc 10 uM) [%] | % Agonist Activity ([4]; Conc 1 uM) [%] | % Antagonist Activity ([4]; Conc 1 uM) [%] | % Agonist Activity ([4]; Conc 10 uM) [%] | % Antagonist Activity ([4]; Conc 10 uM) [%] | % Agonist Activity ([5]; CCR6, 1 uM) [%] | % Antagonist Activity ([5]; CCR6, 1 uM) [%] | % Agonist Activity ([5]; CCR6, 10 uM) [%] | % Antagonist Activity ([5]; CCR6, 10 uM) [%] | also measured
1 | CNC(C)Cc1ccc2c(c1)OCO2 (centres unmarked) [MDMA, 3,4-Methylenedioxy methamphetamine, reference compound] | 0.6 | 11.4 | 0.4 | 12.1 | 3.5 | -17.7 | 3.2 | -14.5 | 1.7 | 16.7 | 0.5 | 18.1 | 0.1 | -3.8 | -1.9 | 7.4 | 1.4 | 0 | 0.7 | 0.3 | % Agonist Activity ([6]; C3AR1, 1 uM): 0.2%; % Antagonist Activity ([6]; C3AR1, 1 uM): 12.9%; % Agonist Activity ([6]; C3AR1, 10 uM): 0.2%; % Antagonist Activity ([6]; C3AR1, 10 uM): 9.8%; % Agonist Activity ([7]; Conc 1 uM): -5.2%; % Antagonist Activity ([7]; Conc 1 uM): 15.3%; % Agonist Activity ([7]; Conc 10 uM): -0.7%; % Antagonist Activity ([7]; Conc 10 uM): 19.1%
2 | CNC(C)C(=O)c1ccc2c(c1)OCO2 (centres unmarked) [methylone] | -1.3 | 2 | -2.6 | -6.7 | -2.8 | 3.3 | -1 | -1.4 | -6.3 | 11.8 | -4.1 | 10.4 | -2.6 | 5.3 | -1.4 | 2.5 | -2.9 | 9.3 | -3.3 | -1.6 | % Agonist Activity ([6]; C3AR1, 1 uM): -0.1%; % Antagonist Activity ([6]; C3AR1, 1 uM): 2.5%; % Agonist Activity ([6]; C3AR1, 10 uM): 0%; % Antagonist Activity ([6]; C3AR1, 10 uM): 0.3%; % Agonist Activity ([7]; Conc 1 uM): -7.6%; % Antagonist Activity ([7]; Conc 1 uM): 23.1%; % Agonist Activity ([7]; Conc 10 uM): -8.7%; % Antagonist Activity ([7]; Conc 10 uM): 32.6%

Source: article PMC10882719 (Frontiers in Neuroscience, 2024)
